Results taken from PMC3909258, “Tannins from Hamamelis virginiana Bark Extract: Characterization and Improvement of the Antiviral Efficacy against Influenza A Virus and Human Papillomavirus” (PLoS ONE, 2014).
Values joined by “and” are separate entries in the source; they are usually repeats but may differ in a detail not shown here. Equal entries are not always repeated.

Legend:
[1] = Tannin depletion with hide powder, phenols by Folin-Ciocalteu; conditions: pyrogallol equivalents normalized to untreated sample
[2] = test system: H1N1 A/Puerto Rico/8/34-NS116-GFP; test: Antiviral effect against GFP reporter virus on A549 cells; conditions: for SI (CC50/EC50): CC50 A549 XTT / EC50 reporter virus; for EC50: Influenza A virus, H1N1, A549, 24 h
in vitro = conditions: human
[3] = test system: pandemic H1N1 A/Lux/46/2009; assay type: cell-based, influenza A virus
[4] = XTT cytotoxicity assay on A549 cells; conditions: human

| SMILES | Remaining phenol content after hide powder treatment [1] | SI (CC50/EC50) [2] | EC50 [2] | CC50 at 24 h (in vitro) | Lower viral titer after virus preincubation [3] [fold] | CC50 at 24 h [4] | SI (CC50/EC50) ([2]; listed as pentagalloylglucose) |
| --- | --- | --- | --- | --- | --- | --- | --- |
| O=C(O[C@@H]1Cc2c(O)cc(O)cc2O[C@@H]1c1cc(O)c(O)c(O)c1)c1cc(O)c(O)c(O)c1 [EGCG, (−)-epigallocatechin gallate] | intermediate reduction | 85 | 12.1 µM and 5.6 µg/mL | 1.03 mM and 472 µg/mL | ~7 |  |  |
| O=C(O)c1cc(O)c(O)c(O)c1 [Gallic acid, Gallic acid monohydrate] | 89 % of untreated |  | 50.8 µM and 9.6 µg/mL |  |  | 770 µM and 145 µg/mL |  |
| O=C(OC[C@H]1OC(O)[C@@](O)(COC(=O)c2cc(O)c(O)c(O)c2)[C@@H]1O)c1cc(O)c(O)c(O)c1 (some centres unmarked) [Hamamelitannin, hamamelitannin] |  |  | > 10 mM |  |  |  |  |
| O=C(OC[C@H]1O[C@@H](OC(=O)c2cc(O)c(O)c(O)c2)[C@H](OC(=O)c2cc(O)c(O)c(O)c2)[C@@H](OC(=O)c2cc(O)c(O)c(O)c2)[C@@H]1OC(=O)c1cc(O)c(O)c(O)c1)c1cc(O)c(O)c(O)c1 [Pentagalloylglucose, penta-O-galloyl-β-D-glucose] |  | 40.0 | 19.5 µM and 18.3 µg/mL |  |  | 779 µM and 733 µg/mL | 40 |
| O=C(OC[C@H]1O[C@@H](OC(=O)c2cc(O)c(O)c(OC(=O)c3cc(O)c(O)c(O)c3)c2)[C@H](OC(=O)c2cc(O)c(O)c(OC(=O)c3cc(O)c(O)c(O)c3)c2)[C@@H](OC(=O)c2cc(O)c(O)c(OC(=O)c3cc(O)c(O)c(O)c3)c2)[C@@H]1OC(=O)c1cc(O)c(O)c(OC(=O)c2cc(O)c(O)c(O)c2)c1)c1cc(O)c(O)c(OC(=O)c2cc(O)c(O)c(O)c2)c1 [Tannic acid, tannic acid] |  | 30.7 |  |  |  |  |  |
